Among the data in EPA's ToxValDB 9.5 (doi:10.2903/j.efsa.2009.182r) are NOAEL, LD50 and LC50 values, retold here.

The test system of one data set is Rattus norvegicus. Conditions: for NOAEL: inhalation.
A further data set concerns Coturnix japonica. The settings on record: acute; oral; mortality.
A further data set relates to Apis mellifera. Conditions: acute; duration: 48 hours; oral; unspecified; mortality.
For the next data set, the system named is Tagia sp. Conditions: acute; duration: 14 days; mortality.
The test system of the next data set is Oncorhynchus mykiss. The settings on record: acute; duration: 96 hours; mortality.
[1] abbreviates: chronic, duration: 2 years, no effects.
The mark [2] stands for this setting: reproduction developmental, mortality.
Setting [3] is: subchronic, duration: 90 days, no effects.

By NOAEL is commonly meant the highest tested level that showed no adverse finding. With `P` [Phosphine], the NOAEL in the data set on Rattus norvegicus (setting [1]) was 1.1 mg/kg-day; with Rattus norvegicus (developmental, duration: 10 days, development), 1.9 mg/kg-day; with Rattus norvegicus (setting [2]), 1.9 mg/kg-day; with Rattus norvegicus (subchronic, duration: 90 days, mortality) it was 1.11 mg/kg-day; in the data set with Rattus norvegicus (setting [3]), 1.1 mg/kg-day.

On to `[Al+3].[P-3]` [Aluminum phosphide], for which the LD50 in the data set on Rattus norvegicus (acute, oral, mortality) worked out at 8.7 mg/kg-day; in the data set on Coturnix japonica, 49 mg/kg-day; with Apis mellifera it was 0.24 µg/piece. Further, the NOAEL in the data set with Rattus norvegicus (setting [1]) is 1.1 mg/kg-day; with Rattus norvegicus (setting [2]), 1.9 mg/kg-day; in the data set on Rattus norvegicus (setting [3]), 1.1 mg/kg-day. The LC50 in the data set with Tagia sp. was found to be 664 mg/kg; in the data set with Oncorhynchus mykiss, 4.68 ng/mL.
